Columns and labels:
K562 = assay: Cell viability MTT assay, 96 h; assay type: cell-based; conditions: Homo sapiens
Method: (§1) Cells were seeded in 96-well plates and incubated with different concentrations of compound 13, 68 or other anticancer drugs for 96 h. Cell viability was quantitated by MTT assay. […] Table 4 is a comparison of the IC50 of compounds 13, 68 and other anticancer drugs in the K562 and doxorubicin-resistant K562/DOX cell lines.

K562/Dox [1] = assay: Cell viability MTT assay, 96 h; assay type: cell-based; conditions: Homo sapiens, doxorubicin-resistant
Method: as §1

solid tumor cell lines = assay: Growth inhibition, range over the cell lines of Table 2; assay type: cell-based; conditions: Homo sapiens, read-out: IC50 values, range over the cell lines tested
Method: Cell viability (LNCaP, PC-3 prostate, DU145, PPC-1, and TSU-Pr1 prostate cancer cell lines, HT-29 colon cancer cell line, and MCF-7 breast cancer cell line) was quantitated using the sulforhodamine B (SRB) assay after 96 h coincubation with different concentrations of compound in 96-well plates. Cell viability of leukemia cells (K562 and doxorubicin-resistant K562/Dox) was quantitated by MTT assay after 96 h coincubation with different concentrations of compound in 96-well plates. Drug-induced apoptosis was determined by anti-histone ELISA assay and DNA laddering. Cell cycle progression was assessed by propidium iodide staining and fluorescence-activated cell sorting (FACS) analysis. In vitro tubulin polymerization assay was determined by CytoDYNAMIX ScreenTM3 (CDS-03) kits according to the manufacturer's instructions. Anti-apoptosis protein (Bcl-2 and Bcl-xl) and pro-apoptosis protein (Bax) were examined in LNCaP and PC-3 after 24 h incubation with different concentrations of compound 13 by Western blot assay. In vivo PC-3 xenograft studies were conducted by i.v. dosing of 50 mg/kg, 100 mg/kg and 150 mg/kg for 2 weeks.
Cells were plated in 96-well plates at a density of 800-5,000 cells/well, depending on the cell line, in their required growth media containing 10% fetal bovine serum. […]

tubulin = system: T1, tubulin; assay: In vitro tubulin polymerization assay; assay type: biochemical, bovine; conditions: cell free, turbidity 340 nm, 40 min; read-out: IC50 of microtubule formation (tubulin polymerization)
T1 construct: IC50 of microtubule formation (tubulin polymerization); other: cell free, turbidity 340 nm, 40 min
Method: Tubulin polymerization kits (Cytoskeleton, Denver, Colo.) were used to study tubulin depolymerization. The reaction contained 50 μL of 4 mg/mL tubulin in PEM buffer (80 mM PIPES, pH 7.0, 0.5 mM EGTA, 2 mM MgCl2, 1 mM GTP, 10% glycerol). The procedure was done according to the manufacturer's protocol. Tubulin polymerization was monitored in a UV spectrophotometer for 40 minutes at 340 nm at 37° C.

Bcl-2 = assay: Western blot of Bcl-2 phosphorylation; assay type: cell-based, human; conditions: PC-3 cells, 24 h, immunoblot of pBcl-2
Method: Treated cells were lysed in cold lysis buffer (20 mM Tris-HCl, pH 7.5, 150 mM NaCl, 1 mM Na2 EDTA, 1% Triton x-100, and freshly added Na3VO4 (2 mM), NaF (20 mM) and complete protease inhibitor cocktail). For each sample, an aliquot (20 to 40 μg) of total protein was loaded and run on a SDS-Page gel. Protein was transferred to nitrocellulose membranes (Bio-Rad Laboratories, Hercules, Calif.), blocked with 5% non-fat milk, incubated with primary antibody overnight at 4° C., and then incubated with secondary antibody at rt for 1 h. ECL™ (GE Healthcare Bio-Sciences Corp., Piscataway, N.J.) was used for detection. The band intensity was measured by densitometry using TotalLab TL100 Software v2006 (Nonlinear Dynamics Ltd., Newcastle upon Tyne, UK).

K562/Dox [2] = assay: Growth inhibition assay (MTT, 96 h); assay type: cell-based, human; conditions: for IC50: Homo sapiens, K562/Dox, P-gp over-expressed, 96 h; for resistance factor (ratio of IC50 resistant subline to parental cell line): K562/Dox vs K562 (P-gp)
Text: MTT (3-(4,5-dimethylthiazol-2-yl)-2,5-diphenyltetrazolium bromide) assay was also used for the leukemia cell lines. […] Cells were stained with SRB solution or MTT solution.

PC-3 cells = assay: DNA fragmentation by cell death detection ELISA (anti-histone); assay type: cell-based; conditions: Homo sapiens, 24 h, read-out: EC50 of increase of enrichment factor (DNA fragmentation)
Method: Apoptosis was measured by quantitation of cytoplasmic histone-associated DNA fragments using the cell death detection ELISA kit. Cells were seeded in 6-well plates and exposed to 68 for 24 h at different concentrations. The quantitation of DNA fragments was performed according to the manufacturer's instructions. Results are expressed as the enrichment factor (i.e., the ratio of the optical density in treated cells to the optical density in control cells).

HEK293-MRP1 = assay: Growth inhibition assay (96 h); assay type: cell-based, human; conditions: HEK293-MRP1 vs HEK293-pcDNA3.1
[3] = system: MRP1 (over-expressed in the cells); assay: Growth inhibition assay (96 h); assay type: cell-based, human; conditions: human, HEK293 cells over-expressing MRP1 (HEK293-MRP1); HEK293-MRP1, MRP1 over-expressed, 96 h
PC-12 cells = assay: In vitro NGF-dependent neurite outgrowth; assay type: cell-based
Method: PC-12 cells were seeded in 6-well plates coated with poly-D-lysine (BD, Franklin Lakes, N.J.) (10000 cells/well). After 6 h, cells were pretreated for 3 days by adding 100 ng/mL murine 2.5S β-NGF (Promega, Madison, Wis.) to induce neuronal differentiation and neurite outgrowth. Differentiated cells were then treated for 24 h with compounds at various concentrations in the presence of NGF (100 ng/mL). Vinblastine and docetaxel were used as positive controls. After compound treatments, approximately 100 cells in each well were randomly chosen and the numbers of cells with no neurites, short neurites (<2×cell body), and long neurites (>2×cell body) were counted (n=3).

HEK293-MRP2 = assay: Growth inhibition assay (96 h); assay type: cell-based, human; conditions: HEK293-MRP2 vs HEK293-pcDNA3.1
[4] = system: MRP2 (over-expressed in the cells); assay: Growth inhibition assay (96 h); assay type: cell-based, human; conditions: human, HEK293 cells over-expressing MRP2 (HEK293-MRP2); HEK293-MRP2, MRP2 over-expressed, 96 h

Row | SMILES | IC50 (K562) | IC50 (K562/Dox [1]) | IC50 (solid tumor cell lines) | IC50 (tubulin) | concentration that induced phosphorylation (Ser70) of Bcl-2 (Bcl-2) | IC50 (K562/Dox [2]) | resistance factor (ratio of IC50 resistant subline to parental cell line) (K562/Dox [2]) | EC50 (PC-3 cells) | resistance factor (ratio of IC50 resistant subline to parental cell line) (HEK293-MRP1) | IC50 at 96 h [3] | cells with neurites (PC-12 cells; PC12, 50 nM, 'a more toxic dose than IC50 value') | cells showing neurite elongation (PC-12 cells; PC12, NGF 100 ng/mL, 24 h, 50 nM (vehicle 88%)) | resistance factor (ratio of IC50 resistant subline to parental cell line) (HEK293-MRP2) | IC50 at 96 h [4] | resistance factor (ratio of IC50 resistant subline to parental cell line) (HEK293-MRP1; listed as vinblastine) | cells with long neurites (PC-12 cells; PC12, NGF 100 ng/mL, 24 h, 5 nM) | cells with elongated neurites (PC-12 cells; PC12, NGF 100 ng/mL, 24 h, 5 nM (vehicle 88%)) | resistance factor (ratio of IC50 resistant subline to parental cell line) (HEK293-MRP2; listed as vinblastine)
1 | O=C(c1cccc(-c2cc3ccccc3[nH]2)c1)c1cc2ccccc2[nH]1 [Compound 13, (1H-indol-2-yl)-[3-(1H-indol-2-yl)phenyl]methanone] | 0.0636 ± 0.0024 µM | 0.0782 ± 0.0029 µM | 0.034 to 0.138 µM | – | – | – | – | – | – | – | – | – | – | – | – | – | – | –
2 | COc1cc(C(=O)c2cccc(-c3cc4ccccc4[nH]3)c2)cc(OC)c1OC [Compound 68, [3-(1H-Indol-2-yl)-phenyl]-(3,4,5-trimethoxy-phenyl)-methanone] | 0.0236 ± 0.0024 µM | 0.018 ± 0.0044 µM | 0.018 to 0.031 µM | 0.381 µM | 50 nM | 0.018 ± 0.0044 µM | (0.8) | 0.0427 µM | (1.3) | 0.0304 ± 0.0064 µM | 60% | 59% | (1.3) | 0.0315 ± 0.008 µM | – | – | – | –
3 | CC[C@]1(O)C[C@@H]2CN(CCc3c([nH]c4ccccc34)[C@@](C(=O)OC)(c3cc4c(cc3OC)N(C)[C@H]3[C@@](O)(C(=O)OC)[C@H](OC(C)=O)[C@]5(CC)C=CCN6CC[C@]43[C@@H]65)C2)C1 [Vinblastine] | 0.0003 ± 0.0001 µM | 0.14 ± 0.0101 µM | – | […] | […] | […] | […] | 0.0081 µM | […] | 0.0243 ± 0.002 µM | – | – | […] | 0.0181 ± 0.004 µM | […] | 1.5% | Twenty-one | […]
